Inconclusive results and toxic doses are left out. Rule for the calls: active = survival T/C of 150% or more; inactive = T/C below 125% in these data.
System: CD2F1 mice, L1210 leukemia ip, survival T/C
Assay: NCI In Vivo Anticancer Drug Screen. Data for tumor model L1210 Leukemia (intraperitoneal) in CD2F1 (CDF1) mice
Conditions: endpoint: mean survival time, higher = longer survival
Procedure, shortened: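 Ratio T/C, where T is the treated-group value and C the vehicle-dosed control value, from mice implanted with a transplantable tumor.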

[1] = dose: 100.0 mg/kg/injection, schedule: Q04DX003 (ip), vehicle: saline with Tween-80
[2] = dose: 200.0 mg/kg/injection, schedule: Q04DX003 (ip), vehicle: saline with Tween-80
[3] = dose: 400.0 mg/kg/injection, schedule: Q04DX003 (ip), vehicle: saline with Tween-80
[4] = dose: 50.0 mg/kg/injection, schedule: Q01DX009 (ip), vehicle: Klucel (hydroxypropylcellulose) (HPC)
[5] = dose: 100.0 mg/kg/injection, schedule: Q01DX009 (ip), vehicle: Klucel (hydroxypropylcellulose) (HPC)
[6] = dose: 100.0 mg/kg/injection, schedule: Q01DX009 (ip), vehicle: saline with Tween-80
[7] = dose: 200.0 mg/kg/injection, schedule: Q01DX009 (ip), vehicle: saline with Tween-80

Measured: T/C

O=c1[nH]c2cc(Cl)ccc2c2ccc(Cl)cc12
inactive: dose: 50.0 mg/kg/injection, schedule: Q01DX001 (ip), vehicle: carboxymethylcellulose (CMC) 98 % of control | dose: 100.0 mg/kg/injection, schedule: Q01DX001 (ip), vehicle: carboxymethylcellulose (CMC) 98 % of control | dose: 200.0 mg/kg/injection, schedule: Q01DX001 (ip), vehicle: carboxymethylcellulose (CMC) 104 % of control | dose: 400.0 mg/kg/injection, schedule: Q01DX001 (ip), vehicle: carboxymethylcellulose (CMC) 95 % of control

CCCCCCCCCCCCOCC[N+](C/C=C/c1ccccc1)(CCO)CCO
inactive: dose: 6.25 mg/kg/injection, schedule: Q04DX003 (ip), vehicle: saline sonified 97 % of control | dose: 12.5 mg/kg/injection, schedule: Q04DX003 (ip), vehicle: saline sonified 103 % of control | dose: 25.0 mg/kg/injection, schedule: Q04DX003 (ip), vehicle: saline sonified 101 % of control

CCN(CC)Cc1cc(Nc2ncnc3sc(C)c(C)c23)ccc1O
inactive: [1] 92 % of control | [2] 88 % of control | [3] 91 % of control

CCc1cc(C(C)(C)C)c(O)c(C(C)(C)C)c1
inactive: dose: 25.0 mg/kg/injection, schedule: Q01DX009 (ip), vehicle: Klucel (hydroxypropylcellulose) (HPC) 102 % of control | [4] 102 % of control | [5] 98 % of control

CC(C)(C)C1CCC(=O)C1 (configuration not stated)
inactive: dose: 12.5 mg/kg/injection, schedule: Q01DX009 (ip), vehicle: saline with Tween-80 87 % of control | dose: 25.0 mg/kg/injection, schedule: Q01DX009 (ip), vehicle: saline with Tween-80 95 % of control

OC(c1ccccc1Cl)C(Cl)(Cl)Cl (configuration not stated)
inactive: [4] 96 % of control | [5] 93 % of control | dose: 200.0 mg/kg/injection, schedule: Q01DX009 (ip), vehicle: Klucel (hydroxypropylcellulose) (HPC) 104 % of control

COc1ccc(/C=C/C(=O)c2ccc(OC)c(OC)c2)cc1OC
inactive: [1] 96 % of control | [2] 101 % of control | [3] 98 % of control

O=C(NC1CCCCC1)NC1CCC(CC2CCCCC2)CC1 (configuration not stated)
inactive: [1] 98 % of control | [2] 96 % of control | [3] 96 % of control

C=CCNC(=O)C[n+]1cccc(C(=O)NC)c1
inactive: dose: 100.0 mg/kg/injection, schedule: Q04DX003 (ip), vehicle: saline 100 % of control | dose: 200.0 mg/kg/injection, schedule: Q04DX003 (ip), vehicle: saline 102 % of control | dose: 400.0 mg/kg/injection, schedule: Q04DX003 (ip), vehicle: saline 102 % of control

CCOc1ccc(N2C(=O)CSC2=S)cc1
inactive: dose: 50.0 mg/kg/injection, schedule: Q01DX009 (ip), vehicle: saline with Tween-80 95 % of control | [6] 87 % of control | [7] 93 % of control

C(=N\Nc1ccccc1)/c1ccc2c(c1)OCO2
inactive: dose: 100.0 mg/kg/injection, schedule: Q01DX001 (ip), vehicle: saline with Tween-80 100 % of control | [6] 97 % of control | dose: 200.0 mg/kg/injection, schedule: Q01DX001 (ip), vehicle: saline with Tween-80 101 % of control | [7] 104 % of control | dose: 400.0 mg/kg/injection, schedule: Q01DX001 (ip), vehicle: saline with Tween-80 95 % of control | dose: 400.0 mg/kg/injection, schedule: Q01DX009 (ip), vehicle: saline with Tween-80 100 % of control

CCCCCC(C)SC#N (configuration not stated)
inactive: [6] 97 % of control

Reference: PubChem BioAssay AID256 (DTP/NCI, 2004)
